For data set [1], the system named is Cyperus serotinus, Rottb. Nature of the data set: Preemergence weed control under flooded paddy conditions, CYPSE (Flatsedge). As to herbicidal effect rating, CYPSE: meaning of each grade not given here. The format is in vivo. Particulars: for herbicidal effect rating, CYPSE / CYPSE herbicidal rating: preemergence, rated three to four weeks after treatment; for CYPSE: preemergence weeds, herbicidal effect rating 0-9, three to four weeks after treatment.

In data set [2] the test system is Sagittaria pygmaea, L. Kind of data set: Preemergence weed control under flooded paddy conditions, SAGPY (Arrowhead (Pygmaea)). As to herbicidal effect rating, SAGPY: meaning of each grade not given here. It is filed as in vivo. Particulars: flooded paddy; for herbicidal effect rating, SAGPY / SAGPY herbicidal rating: preemergence, rated three to four weeks after treatment; for SAGPY: preemergence weeds, herbicidal effect rating 0-9, three to four weeks after treatment.

Data set [3] concerns Oryza sativa, (L.) Tebonnet. Kind of data set: Rice tolerance to post-transplant applications under flooded paddy conditions (Example 187), ORYSAT (Rice, Tebonnet). Particulars: for herbicidal effect rating ORYSAT / ORYSAT herbicidal rating (rice tolerance): rated three to four weeks after treatment; for ORYSAT: herbicidal effect rating 0-9, three to four weeks after treatment.

Data set [4] concerns Echinochloa oryzoides (Ard.) Fritsch. Nature of the data set: Preemergence weed control under flooded paddy conditions, ECHORC (Watergrass (Calif.)). As to herbicidal effect rating, ECHORC: meaning of each grade not given here. The format is in vivo. The following applies: flooded paddy; for herbicidal effect rating, ECHORC / ECHORC herbicidal rating: preemergence, rated three to four weeks after treatment; for ECHORC: preemergence weeds, herbicidal effect rating 0-9, three to four weeks after treatment.

The subject of data set [5] is Cyperus iria. Nature of the data set: Preemergence weed control under flooded paddy conditions, CYPIR (Rice Flatsedge). As to herbicidal effect rating, CYPIR: meaning of each grade not given here. The format is in vivo. Particulars: flooded paddy; for herbicidal effect rating, CYPIR / CYPIR herbicidal rating: preemergence, rated three to four weeks after treatment; for CYPIR: preemergence weeds, herbicidal effect rating 0-9, three to four weeks after treatment.

The test system of data set [6] is Monochoria vaginalis, Presl. Nature of the data set: Preemergence weed control under flooded paddy conditions, MOOVA (Monochoria). As to herbicidal effect rating, MOOVA: meaning of each grade not given here. It is filed as in vivo. The following applies: flooded paddy; for herbicidal effect rating, MOOVA / MOOVA herbicidal rating: preemergence, rated three to four weeks after treatment; for MOOVA: preemergence weeds, herbicidal effect rating 0-9, three to four weeks after treatment.

The structures appear in SMILES notation.

For `CCCS(=O)(=O)NC(=O)C(C)Oc1ccc(C)cc1-c1nsc2ccc(-n3c(=O)cc(C(F)(F)F)n(C)c3=O)cc12` (centres unmarked) [Example 569, Propionamide, 2-{{2-{5-[3,6-dihydro-3-methyl-2,6-dioxo-4-(trifluoromethyl)-1(2H)-pyrimidinyl]-1,2-benzisothiazol-3-yl}-p-tolyl}oxy}-N-(propyl-sulfonyl)-], the “herbicidal effect rating, CYPSE” value in data set [1] (Rate 0.0320 kg/ha), in data set [1] (Rate 0.0620 kg/ha), in data set [1] (Rate 0.1250 kg/ha) and in data set [1] (Rate 0.2500 kg/ha) was 0.0 throughout. Moreover, the “herbicidal effect rating, SAGPY” value in data set [2] (Rate 0.0320 kg/ha) was determined as 0.0; in data set [2] (Rate 0.0620 kg/ha) it was 0.0; in data set [2] (Rate 0.1250 kg/ha), 0.0; in data set [2] (Rate 0.2500 kg/ha), 9.0. In addition, the “herbicidal effect rating ORYSAT” value in data set [3] (Rate 0.0320 kg/ha) is 0.0; in data set [3] (Rate 0.0620 kg/ha) it was 0.0; in data set [3] (Rate 0.1250 kg/ha) it was 0.0; in data set [3] (Rate 0.2500 kg/ha), 1.0. In addition, the “herbicidal effect rating, ECHORC” value in data set [4] (Rate 0.0320 kg/ha) is on record as 2.0; in data set [4] (Rate 0.0620 kg/ha), 4.0; in data set [4] (Rate 0.1250 kg/ha), 5.0; in data set [4] (Rate 0.2500 kg/ha), 5.0. The “herbicidal effect rating, CYPIR” value in data set [5] (Rate 0.0320 kg/ha), in data set [5] (Rate 0.0620 kg/ha), in data set [5] (Rate 0.1250 kg/ha) and in data set [5] (Rate 0.2500 kg/ha) was 0.0 in each case. The “herbicidal effect rating, MOOVA” value turned out to be 4.0 in data set [6] (Rate 0.0320 kg/ha), 6.0 in data set [6] (Rate 0.0620 kg/ha), 6.0 in data set [6] (Rate 0.1250 kg/ha) and 6.0 in data set [6] (Rate 0.2500 kg/ha).

In the case of `Cn1c(C(F)(F)F)cc(=O)n(-c2ccc3snc(COCc4ccc([N+](=O)[O-])cc4)c3c2)c1=O` [Example 589, 2,4(1H,3H)-Pyrimidinedione, 1-methyl-3-{3-{[(p-nitrobenzyl)oxy]methyl}-1,2-benzisothiazol-5-yl}-6-(trifluoromethyl)-], the “herbicidal effect rating, CYPSE” value in data set [1] (Rate 0.0320 kg/ha), in data set [1] (Rate 0.0620 kg/ha) and in data set [1] (Rate 0.1250 kg/ha) was 0.0 throughout. Also, the “herbicidal effect rating, SAGPY” value in data set [2] (Rate 0.0320 kg/ha) is on record as 0.0; in data set [2] (Rate 0.0620 kg/ha), 2.0; in data set [2] (Rate 0.1250 kg/ha), 2.0; in data set [2] (Rate 0.2500 kg/ha), 3.0. Moreover, the “herbicidal effect rating ORYSAT” value in data set [3] (Rate 0.0320 kg/ha), in data set [3] (Rate 0.0620 kg/ha), in data set [3] (Rate 0.1250 kg/ha) and in data set [3] (Rate 0.2500 kg/ha) was 0.0 in each case. In addition, the “herbicidal effect rating, ECHORC” value in data set [4] (Rate 0.0320 kg/ha), in data set [4] (Rate 0.0620 kg/ha), in data set [4] (Rate 0.1250 kg/ha) and in data set [4] (Rate 0.2500 kg/ha) was 4.0 each time. In addition, the “herbicidal effect rating, CYPIR” value came out at 0.0 in data set [5] (Rate 0.0320 kg/ha), 2.0 in data set [5] (Rate 0.0620 kg/ha), 3.0 in data set [5] (Rate 0.1250 kg/ha) and 4.0 in data set [5] (Rate 0.2500 kg/ha). Also, the “herbicidal effect rating, MOOVA” value in data set [6] (Rate 0.0320 kg/ha) worked out at 7.0; in data set [6] (Rate 0.0620 kg/ha) it was 8.0; in data set [6] (Rate 0.1250 kg/ha), 8.0; in data set [6] (Rate 0.2500 kg/ha), 9.0.

Take `COC(=O)C(C)(C)c1nsc2ccc(-n3c(=O)cc(C(F)(F)F)n(C)c3=O)cc12` [Example 490, 1,2-Benzisothiazole-3-acetic acid, 5-[3,6-dihydro-3-methyl-2,6-dioxo-4-(trifluoromethyl)-1(2H)-pyrimidinyl]-alpha,alpha-dimethyl-, methyl ester]: the CYPSE herbicidal rating in data set [1] (0.0320 kg/ha), in data set [1] (0.0620 kg/ha), in data set [1] (0.1250 kg/ha) and in data set [1] (0.2500 kg/ha) was 9.0 in each case. Further, the SAGPY herbicidal rating in data set [2] (0.0320 kg/ha) amounted to 6.0; in data set [2] (0.0620 kg/ha), 9.0; in data set [2] (0.1250 kg/ha) it was 9.0; in data set [2] (0.2500 kg/ha), 9.0. Also, the “ORYSAT herbicidal rating (rice tolerance)” value came out at 7.5 in data set [3] (0.0320 kg/ha), 9.0 in data set [3] (0.0620 kg/ha), 8.5 in data set [3] (0.1250 kg/ha) and 9.0 in data set [3] (0.2500 kg/ha). In addition, the ECHORC herbicidal rating worked out at 8.0 in data set [4] (0.0320 kg/ha), 9.0 in data set [4] (0.0620 kg/ha), 9.0 in data set [4] (0.1250 kg/ha) and 9.0 in data set [4] (0.2500 kg/ha). Besides, the CYPIR herbicidal rating in data set [5] (0.0320 kg/ha), in data set [5] (0.0620 kg/ha), in data set [5] (0.1250 kg/ha) and in data set [5] (0.2500 kg/ha) was 9.0 each time. Besides, the MOOVA herbicidal rating in data set [6] (0.0320 kg/ha), in data set [6] (0.0620 kg/ha), in data set [6] (0.1250 kg/ha) and in data set [6] (0.2500 kg/ha) was 9.0 each time.

As to `Cn1c(C(F)(F)F)cc(=O)n(-c2ccc3snc(C(Br)S(=O)(=O)c4ccccc4)c3c2)c1=O` (centres unmarked) [Example 407, 2,4(1H,3H)-Pyrimidinedione, 3-{3-[bromo(phenylsulfonyl)methyl]-1,2-benzisothiazol-5-yl}-1-methyl-6-(trifluoromethyl)-], the CYPSE is recorded as 0.0 in data set [1] (0.0320 kg/ha), 0.0 in data set [1] (0.0620 kg/ha), 5.0 in data set [1] (0.1250 kg/ha) and 7.0 in data set [1] (0.2500 kg/ha). In addition, the SAGPY in data set [2] (0.0320 kg/ha) was determined as 0.0; in data set [2] (0.0620 kg/ha), 2.0; in data set [2] (0.1250 kg/ha), 6.0; in data set [2] (0.2500 kg/ha) it was 7.0. Further, the ORYSAT in data set [3] (0.0320 kg/ha) turned out to be 0.0; in data set [3] (0.0620 kg/ha), 2.0; in data set [3] (0.1250 kg/ha), 3.0; in data set [3] (0.2500 kg/ha), 5.0. Moreover, the ECHORC in data set [4] (0.0320 kg/ha) is given as 0.0; in data set [4] (0.0620 kg/ha), 3.0; in data set [4] (0.1250 kg/ha) it was 7.0; in data set [4] (0.2500 kg/ha) it was 7.0. Further, the CYPIR in data set [5] (0.0320 kg/ha) was 3.0; in data set [5] (0.0620 kg/ha) it was 4.0; in data set [5] (0.1250 kg/ha), 9.0; in data set [5] (0.2500 kg/ha) it was 9.0. The MOOVA in data set [6] (0.0320 kg/ha) amounted to 6.0; in data set [6] (0.0620 kg/ha), 7.0; in data set [6] (0.1250 kg/ha), 9.0; in data set [6] (0.2500 kg/ha), 9.0.

Source of the values: EP0908457B1, “3-(1,2-benzisothiazol- and isoxazol-5-Y1)-2,4(1H,3H)-pyrimidinedione or thione and 3-(1,2-benzisothiazol- and isoxazol-5-y1)-4(3H)-pyrimidinone or thione herbicidal agents” (BASF AKTIENGESELLSCHAFT, priority 1997, dated 1999).
